Laboratory results taken from the NIST ThermoML archive (doi:10.1007/s10765-005-5571-9).

Assays:
[1] = 298.15 K; 101.3 kPa; Liquid
[2] = xn = mol fraction of the nth substance listed; conditions: 298 K, 101.3 kPa, Liquid

CC(=O)OCCC(C)C [3-methylbutyl ethanoate]
Conditions | mass density [kg/m3]
[1] | 867.356

CC(=O)OCCC(C)C [3-methylbutyl ethanoate] + C=C(C)C(=O)OC
[2]
Conditions | mass density [kg/m3]
x1 = 0.0263 | 934.984
x1 = 0.0515 | 932.526
x1 = 0.1007 | 927.871
x1 = 0.1599 | 922.52
x1 = 0.2002 | 919.025
x1 = 0.25 | 914.86
x1 = 0.3053 | 910.408
x1 = 0.3502 | 906.93
x1 = 0.4005 | 903.17
x1 = 0.4504 | 899.578
x1 = 0.5005 | 896.102
x1 = 0.5502 | 892.767
x1 = 0.6005 | 889.513
x1 = 0.6538 | 886.188
x1 = 0.7003 | 883.384
x1 = 0.7508 | 880.451
x1 = 0.8003 | 877.66
x1 = 0.85 | 874.956
x1 = 0.9002 | 872.311
x1 = 0.9499 | 869.798
x1 = 0.9751 | 868.558
x1 = 1 | 867.356

CC(=O)OCCC(C)C [3-methylbutyl ethanoate] + C=CC(=O)OCC
Conditions | mass density [kg/m3]
[2], x1 = 1 | 867.356

CC(=O)OCCC(C)C [3-methylbutyl ethanoate] + C=CC(=O)OCCCC
Conditions | mass density [kg/m3]
[2], x1 = 1 | 867.356

CC(=O)OCCC(C)C [3-methylbutyl ethanoate] + C=Cc1ccccc1
[2]
Conditions | mass density [kg/m3]
x1 = 0.0293 | 900.833
x1 = 0.0529 | 899.946
x1 = 0.0997 | 898.18
x1 = 0.1502 | 896.274
x1 = 0.2 | 894.422
x1 = 0.2502 | 892.59
x1 = 0.3064 | 890.541
x1 = 0.3509 | 888.929
x1 = 0.4042 | 887.046
x1 = 0.4508 | 885.398
x1 = 0.5011 | 883.646
x1 = 0.5571 | 881.719
x1 = 0.6002 | 880.257
x1 = 0.6507 | 878.546
x1 = 0.7003 | 876.895
x1 = 0.7514 | 875.198
x1 = 0.7999 | 873.614
x1 = 0.8507 | 871.983
x1 = 0.9005 | 870.41
x1 = 0.9499 | 868.881
x1 = 0.9747 | 868.119
x1 = 1 | 867.356

C=CC(=O)OCCCC [butyl 2-propenoate]
Conditions | mass density [kg/m3]
[1] | 893.947

C=CC(=O)OCCCC [butyl 2-propenoate] + CC(=O)OCCC(C)C
[2]
Conditions | mass density [kg/m3]
x2 = 0 | 893.947
x2 = 0.0257 | 893.222
x2 = 0.0496 | 892.552
x2 = 0.1035 | 891.059
x2 = 0.1504 | 889.769
x2 = 0.2 | 888.407
x2 = 0.2504 | 887.04
x2 = 0.2999 | 885.689
x2 = 0.3512 | 884.304
x2 = 0.4001 | 882.985
x2 = 0.4521 | 881.596
x2 = 0.5 | 880.304
x2 = 0.55 | 878.984
x2 = 0.6 | 877.664
x2 = 0.65 | 876.356
x2 = 0.7003 | 875.048
x2 = 0.7502 | 873.751
x2 = 0.7998 | 872.467
x2 = 0.85 | 871.176
x2 = 0.9 | 869.889
x2 = 0.95 | 868.618
x2 = 0.9752 | 867.98

C=CC(=O)OCC [ethyl propenoate]
Conditions | mass density [kg/m3]
[1] | 916.124

C=CC(=O)OCC [ethyl propenoate] + CC(=O)OCCC(C)C
[2]
Conditions | mass density [kg/m3]
x2 = 0 | 916.124
x2 = 0.031 | 913.999
x2 = 0.0501 | 912.721
x2 = 0.0999 | 909.503
x2 = 0.1505 | 906.326
x2 = 0.2012 | 903.286
x2 = 0.2501 | 900.442
x2 = 0.301 | 897.604
x2 = 0.3512 | 894.897
x2 = 0.402 | 892.257
x2 = 0.4505 | 889.84
x2 = 0.501 | 887.406
x2 = 0.5502 | 885.117
x2 = 0.6002 | 882.87
x2 = 0.6518 | 880.634
x2 = 0.7001 | 878.602
x2 = 0.7499 | 876.582
x2 = 0.8008 | 874.573
x2 = 0.8514 | 872.644
x2 = 0.9001 | 870.846
x2 = 0.9503 | 869.055
x2 = 0.9752 | 868.197

C=C(C)C(=O)OC [methyl methacrylate]
Conditions | mass density [kg/m3]
[1] | 937.628

C=C(C)C(=O)OC [methyl methacrylate] + CC(=O)OCCC(C)C
Conditions | mass density [kg/m3]
[2], x2 = 0 | 937.628

C=Cc1ccccc1 [styrene]
Conditions | mass density [kg/m3]
[1] | 901.941

C=Cc1ccccc1 [styrene] + CC(=O)OCCC(C)C
Conditions | mass density [kg/m3]
[2], x2 = 0 | 901.941
